Assay results: patent publication US20170087120A1, “COMPOSITION FOR IMPROVING BIOAVAILBILITY AND EFFICACY OF TAXANE” (Florida A&M University, priority 2015, published 2017)

What was measured:
Caco-2 monolayer = experiment: permeability and efflux across Caco-2 monolayer; conditions: co-treated with piperlongumine
Description: In FIG. 1B, Caco-2 is colon carcinoma cells used to evaluate the permeability and efflux of drug in GI track.

[1] = in vivo oral pharmacokinetic in SD rats; conditions: coadministration with PPL vs DTX alone
CYP3A4 = experiment: in vitro microsomal metabolism of taxane by human liver microsomes; format: in vitro ADME; conditions: for metabolism of docetaxel (DTX) by human liver microsomes: PPL added in reaction mixture with DTX
Description: In FIG. 1A, in vitro microsomal metabolism studies of DTX by human liver microsomes were carried out in combination with PPL and compared with a known standard CYP3A4 inhibitor, Cyclosporin A (CYA).

MDA-MB-231 cell line = experiment: in vitro migration assay; format: cell-based
Description: FIG. 2C depicts in vitro migration assay on MDA-MB-231 cell line.

[2] = cancer cell lines, with piperlongumine

## COc1cc(/C=C/C(=O)N2CCC=CC2=O)cc(OC)c1OC [PPL, piperlongumine]
Caco-2 monolayer
  permeability co-efficient of docetaxel: enhancement
[1]
  oral bioavailability of docetaxel (DTX): significant enhancement
[1]; listed as Piperlongumine
  oral bioavailability of docetaxel (DTX): significantly enhanced
CYP3A4
  metabolism of docetaxel (DTX) by human liver microsomes: significantly reduced
CYP3A4; listed as Piperlongumine
  metabolism of docetaxel (DTX) by human liver microsomes: reduction
CYP3A4; human liver microsomes, PPL added in reaction mixture
  half-life of DTX: doubled
CYP3A4; human liver microsomes, compared with Cyclosporin A (CYA)
  CYP3A4 inhibition: comparable to inhibitor CYA
CYP3A4; with piperlongumine
  metabolism of paclitaxel by human microsomal enzyme: reduction
MDA-MB-231 cell line; MDA-MB-231 cell line
  % bridging of migration area: significant reduction
MDA-MB-231 cell line; [2]
  anti-migration effect of docetaxel: enhanced
  anti-migration effect of paclitaxel: enhanced
